Results: ChEMBL document CHEMBL5096241, “Discovery of 3-Aminopyrazole Derivatives as New Potent and Orally Bioavailable AXL Inhibitors” (J Med Chem, 2022)
Calls of active or inactive are those of the source. No cut-off for these calls is given here.

What was measured:
[1] = tested on: MDA-MB-231; assay: Inhibition of TGF-beta induced epithelial mesenchymal transition process in human metastatic MDA-MB-231 cells assessed as restoration of N-cadherin expression incubated for 3 days by Western blot analysis; format: functional, cell-based; conditions: dose 0.11-3 µM, time 3.0 day, DDE = dose-dependent effect
[2] = Observed MRTinfinity in Sprague-Dawley rat at 25 mg/kg, po measured for 96 hrs by LC-MS analysis; format: ADME, organism-based; conditions: in vivo
[3] = Oral bioavailability in Sprague-Dawley rat at 25 mg/kg measured for 96 hrs by LC-MS analysis; format: ADME, organism-based; conditions: in vivo
[4] = Tmax in Sprague-Dawley rat at 25 mg/kg, po measured for 96 hrs by LC-MS analysis; format: ADME, organism-based; conditions: in vivo
[5] = biological target: T1, Mast/stem cell growth factor receptor Kit (Homo sapiens, UniProt P10721); assay: Inhibition of KIT (unknown origin)
[6] = biological target: Mitogen-activated protein kinase kinase kinase kinase 5 (Homo sapiens, UniProt Q9Y4K4); assay: Binding affinity to MAP4K5 (unknown origin) assessed as dissociation constant by competition binding assay
[7] = biological target: Macrophage colony-stimulating factor 1 receptor (Homo sapiens, UniProt P07333); assay: Binding affinity to CSF1R (unknown origin) assessed as dissociation constant by competition binding assay
[8] = tested on: MDA-MB-231; assay: Inhibition of TGF-beta induced cell migration in human MDA-MB-231 cells assessed as reduction in wound closure at 1 to 3 uM incubated for 24 hrs by bright field microscopy based wound healing assay; format: functional; conditions: dose 1-3 µM
[9] = Observed AUCinfinity in Sprague-Dawley rat at 25 mg/kg, po measured for 96 hrs by LC-MS analysis; format: ADME, organism-based; design: dose 25 mg/kg, time 96 hrs, route po; conditions: in vivo
[10] = biological target: Platelet-derived growth factor receptor beta (Homo sapiens, UniProt P09619); assay: Binding affinity to PDGFRB (unknown origin) assessed as dissociation constant by competition binding assay
[11] = Toxicity in BALB/c mouse implanted with mouse 4T1 cells assessed as effect on implantation rate at 50 to 100 mg/kg, po qd administered for 14 consecutive days and measured every 2 days; format: organism-based; conditions: in vivo, 336 h, dose 50-100 mg/kg, time 14 day
[12] = Inhibition of TGF-beta induced cell invasion in human MDA-MB-231 cells at 1 uM incubated for 24 hrs by crystal violet staining based transwell assay relative to control; format: functional
[13] = AUClast in Sprague-Dawley rat at 25 mg/kg, po measured for 96 hrs by LC-MS analysis; format: ADME, organism-based; design: time 96 hrs, dose 25 mg/kg, route po; conditions: in vivo
[14] = tested on: BaF3; assay: Antiproliferative activity against mouse BaF3 cells transfected with TEL-AXL assessed as inhibition of cell growth incubated for 72 hrs; format: functional, cell-based; conditions: BaF3, 72 h
[15] = biological target: Tyrosine-protein kinase receptor UFO (Homo sapiens) (UniProt P30530); assay: Inhibition of AXL phosphorylation at Tyr702 residue in human MDA-MB-231 cells measured after 6 hrs by Western blot analysis; format: cell-based; conditions: dose 0.8-500 nM, DDE = dose-dependent effect
[16] = AUClast in Sprague-Dawley rat at 5 mg/kg, iv measured for 96 hrs by LC-MS analysis; format: ADME, organism-based; design: time 96 hrs, dose 5 mg/kg, route iv; conditions: in vivo
[17] = tested on: 4T1; assay: Antitumor activity against metastatic mouse 4T1 cells implanted in BALB/c mouse assessed as tumor growth inhibition at 50 mg/kg, po qd administered for 14 consecutive days and measured every 2 days by electronic caliper method relative to control; format: functional; conditions: 4T1, 336 h, time 14 day, read-out: TGI
[18] = Cmax in Sprague-Dawley rat at 5 mg/kg, iv measured for 96 hrs by LC-MS analysis; format: ADME, organism-based; design: time 96 hrs, dose 5 mg/kg, route iv; conditions: in vivo
[19] = Half life in Sprague-Dawley rat at 25 mg/kg, po measured for 96 hrs by LC-MS analysis; format: ADME, organism-based; conditions: in vivo
[20] = biological target: Macrophage-stimulating protein receptor (Homo sapiens, UniProt Q04912); assay: Binding affinity to […] (unknown origin) assessed as dissociation constant by competition binding assay
[21] = biological target: Tyrosine-protein kinase receptor UFO (Mus musculus) (UniProt Q00993); assay: Inhibition of AXL phosphorylation at Tyr702 residue in mouse 4T1 cells measured after 6 hrs by Western blot analysis; format: cell-based; conditions: dose 0.8-500 nM, DDE = dose-dependent effect
[22] = biological target: Vascular endothelial growth factor receptor 3 (Homo sapiens, UniProt P35916); assay: Binding affinity to FLT4 (unknown origin) assessed as dissociation constant by competition binding assay
[23] = Cmax in Sprague-Dawley rat at 25 mg/kg, po measured for 96 hrs by LC-MS analysis; format: ADME, organism-based; design: dose 25 mg/kg, time 96 hrs, route po; conditions: in vivo
[24] = biological target: Epithelial discoidin domain-containing receptor 1 (Homo sapiens, UniProt Q08345); assay: Binding affinity to DDR1 (unknown origin) assessed as dissociation constant by competition binding assay
[25] = Inhibition of TGF-beta induced cell invasion in human MDA-MB-231 cells at 3 uM incubated for 24 hrs by crystal violet staining based transwell assay relative to control; format: functional
[26] = biological target: T1, Mast/stem cell growth factor receptor Kit; assay: Binding affinity to KIT (unknown origin) assessed as dissociation constant by competition binding assay
[27] = Observed AUCinfinity in Sprague-Dawley rat at 5 mg/kg, iv measured for 96 hrs by LC-MS analysis; format: ADME, organism-based; design: dose 5 mg/kg, time 96 hrs, route iv; conditions: in vivo
[28] = tested on: 4T1; assay: Inhibition of ERK phosphorylation in mouse 4T1 cells measured after 6 hrs by Western blot analysis; format: cell-based; conditions: dose 0.8-500 nM, DDE = dose-dependent effect
[29] = biological target: Serine/threonine-protein kinase 10 (Homo sapiens, UniProt O94804); assay: Binding affinity to LOK (unknown origin) assessed as dissociation constant by competition binding assay
[30] = biological target: Angiopoietin-1 receptor (Homo sapiens, UniProt Q02763); assay: Binding affinity to TIE2 (unknown origin) assessed as dissociation constant by competition binding assay
[31] = Inhibition of TGF-beta induced cell invasion in human MDA-MB-231 cells at 0.33 uM incubated for 24 hrs by crystal violet staining based transwell assay relative to control; format: functional
[32] = Tmax in Sprague-Dawley rat at 5 mg/kg, iv measured for 96 hrs by LC-MS analysis; format: ADME, organism-based; conditions: in vivo
[33] = tested on: 4T1; assay: Antitumor activity against metastatic mouse 4T1 cells implanted in BALB/c mouse assessed as reduction in size of liver metastases administered orally once daily for 14 consecutive days by H & E staining based microscopic analysis; format: functional; conditions: dose 50-100 mg/kg, route po, time 14.0 day, DDE = dose-dependent effect
[34] = tested on: 4T1; assay: In vivo inhibition of AXL phosphorylation in BALB/c mouse implanted with mouse 4T1 cells administered orally once a day for 14 days; format: functional, organism-based; conditions: dose 50-100 mg/kg, route po, time 14.0 day, DDE = dose-dependent effect
[35] = biological target: Serine/threonine-protein kinase AKT (Homo sapiens) (UniProt P31751+Q9Y243+P31749); assay: Inhibition of AKT phosphorylation at S473 residue in human MDA-MB-231 cells measured after 6 hrs by Western blot analysis; format: cell-based; conditions: dose 0.8-500 nM, DDE = dose-dependent effect
[36] = biological target: Tyrosine-protein kinase Mer (Homo sapiens, UniProt Q12866); assay: Binding affinity to MERTK (unknown origin) assessed as dissociation constant by competition binding assay
[37] = tested on: 4T1; assay: Antitumor activity against metastatic mouse 4T1 cells implanted in BALB/c mouse assessed as inhibition of liver micrometastasis at 50 to 100 mg/kg, po qd administered for 14 consecutive days by H & E staining based microscopic analysis; format: functional, organism-based; conditions: dose 50-100 mg/kg, time 14.0 day
[38] = tested on: 4T1; assay: Antitumor activity against metastatic mouse 4T1 cells implanted in BALB/c mouse assessed as tumor growth inhibition at 100 mg/kg, po qd administered for 14 consecutive days and measured every 2 days by electronic caliper method relative to control; format: functional; conditions: 4T1, 336 h, time 14 day, read-out: TGI

T1 sequence (P10721 whole entry): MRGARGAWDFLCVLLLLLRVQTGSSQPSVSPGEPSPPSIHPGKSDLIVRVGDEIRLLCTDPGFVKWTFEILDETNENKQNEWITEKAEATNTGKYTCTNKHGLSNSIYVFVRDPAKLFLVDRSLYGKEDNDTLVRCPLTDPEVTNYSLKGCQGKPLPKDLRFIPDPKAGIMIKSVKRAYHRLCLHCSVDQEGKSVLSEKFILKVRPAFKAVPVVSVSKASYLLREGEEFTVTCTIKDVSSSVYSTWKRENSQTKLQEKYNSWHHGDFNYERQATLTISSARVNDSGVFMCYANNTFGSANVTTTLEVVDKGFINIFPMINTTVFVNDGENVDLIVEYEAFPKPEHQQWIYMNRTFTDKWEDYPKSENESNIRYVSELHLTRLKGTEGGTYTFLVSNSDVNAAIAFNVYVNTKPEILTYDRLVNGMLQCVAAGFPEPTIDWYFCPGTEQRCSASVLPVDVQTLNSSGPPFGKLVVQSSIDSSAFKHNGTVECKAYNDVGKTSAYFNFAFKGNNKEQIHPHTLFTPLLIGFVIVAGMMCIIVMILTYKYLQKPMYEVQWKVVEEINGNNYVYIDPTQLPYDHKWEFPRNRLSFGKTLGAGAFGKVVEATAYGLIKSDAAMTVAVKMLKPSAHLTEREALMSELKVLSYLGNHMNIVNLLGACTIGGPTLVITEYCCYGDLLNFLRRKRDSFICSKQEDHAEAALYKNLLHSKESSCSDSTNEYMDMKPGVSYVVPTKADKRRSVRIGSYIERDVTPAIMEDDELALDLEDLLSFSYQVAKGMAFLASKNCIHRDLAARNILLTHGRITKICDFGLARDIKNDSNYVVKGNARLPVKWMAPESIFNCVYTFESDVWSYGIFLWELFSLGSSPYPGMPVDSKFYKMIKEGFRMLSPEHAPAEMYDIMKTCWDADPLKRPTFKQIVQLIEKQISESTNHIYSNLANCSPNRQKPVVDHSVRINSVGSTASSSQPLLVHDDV
Sequence of Platelet-derived growth factor receptor beta (P09619 whole entry): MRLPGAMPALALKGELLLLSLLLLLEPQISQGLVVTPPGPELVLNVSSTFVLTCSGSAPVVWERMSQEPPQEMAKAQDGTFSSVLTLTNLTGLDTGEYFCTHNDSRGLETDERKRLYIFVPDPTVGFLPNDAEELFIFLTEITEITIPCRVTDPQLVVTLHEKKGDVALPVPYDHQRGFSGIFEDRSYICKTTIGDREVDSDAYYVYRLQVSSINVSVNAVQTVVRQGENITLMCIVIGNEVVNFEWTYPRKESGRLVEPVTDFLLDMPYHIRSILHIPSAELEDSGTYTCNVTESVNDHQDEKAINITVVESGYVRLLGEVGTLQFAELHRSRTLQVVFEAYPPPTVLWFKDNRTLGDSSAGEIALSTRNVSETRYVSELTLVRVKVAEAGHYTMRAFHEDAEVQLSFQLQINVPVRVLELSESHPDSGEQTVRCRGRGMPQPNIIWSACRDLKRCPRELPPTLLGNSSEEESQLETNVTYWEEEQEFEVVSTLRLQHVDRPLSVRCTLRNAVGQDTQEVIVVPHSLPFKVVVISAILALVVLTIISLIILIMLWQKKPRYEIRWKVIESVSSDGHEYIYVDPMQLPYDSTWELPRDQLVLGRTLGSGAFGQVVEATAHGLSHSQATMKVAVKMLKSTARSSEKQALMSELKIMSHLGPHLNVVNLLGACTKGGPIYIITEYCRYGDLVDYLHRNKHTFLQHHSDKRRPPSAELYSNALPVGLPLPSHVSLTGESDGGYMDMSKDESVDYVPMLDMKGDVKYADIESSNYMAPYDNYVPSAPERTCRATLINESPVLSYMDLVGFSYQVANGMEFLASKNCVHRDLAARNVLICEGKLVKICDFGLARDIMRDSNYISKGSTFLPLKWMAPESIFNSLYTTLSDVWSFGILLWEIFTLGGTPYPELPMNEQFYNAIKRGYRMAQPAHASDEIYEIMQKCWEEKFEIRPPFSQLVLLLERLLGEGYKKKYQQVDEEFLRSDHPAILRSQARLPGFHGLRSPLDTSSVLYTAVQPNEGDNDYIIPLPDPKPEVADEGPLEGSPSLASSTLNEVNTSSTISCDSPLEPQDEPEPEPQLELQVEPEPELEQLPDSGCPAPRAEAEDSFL
Sequence of Serine/threonine-protein kinase AKT (Homo sapiens) (P31749 whole entry, looked up): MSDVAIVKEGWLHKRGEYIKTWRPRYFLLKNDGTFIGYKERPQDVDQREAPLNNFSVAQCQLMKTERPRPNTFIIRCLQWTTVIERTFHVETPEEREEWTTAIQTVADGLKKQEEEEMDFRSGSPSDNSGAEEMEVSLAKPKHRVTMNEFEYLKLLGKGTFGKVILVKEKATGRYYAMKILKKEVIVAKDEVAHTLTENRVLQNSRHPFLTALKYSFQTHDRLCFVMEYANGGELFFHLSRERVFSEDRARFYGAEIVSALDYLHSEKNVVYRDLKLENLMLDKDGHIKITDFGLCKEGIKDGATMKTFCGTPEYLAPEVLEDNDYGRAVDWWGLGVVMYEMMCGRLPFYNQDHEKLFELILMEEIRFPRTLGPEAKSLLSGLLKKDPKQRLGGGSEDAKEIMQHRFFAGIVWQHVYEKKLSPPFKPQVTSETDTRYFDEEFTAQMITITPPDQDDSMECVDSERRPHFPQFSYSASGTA
Sequence of Serine/threonine-protein kinase AKT (Homo sapiens) (P31751 whole entry, looked up): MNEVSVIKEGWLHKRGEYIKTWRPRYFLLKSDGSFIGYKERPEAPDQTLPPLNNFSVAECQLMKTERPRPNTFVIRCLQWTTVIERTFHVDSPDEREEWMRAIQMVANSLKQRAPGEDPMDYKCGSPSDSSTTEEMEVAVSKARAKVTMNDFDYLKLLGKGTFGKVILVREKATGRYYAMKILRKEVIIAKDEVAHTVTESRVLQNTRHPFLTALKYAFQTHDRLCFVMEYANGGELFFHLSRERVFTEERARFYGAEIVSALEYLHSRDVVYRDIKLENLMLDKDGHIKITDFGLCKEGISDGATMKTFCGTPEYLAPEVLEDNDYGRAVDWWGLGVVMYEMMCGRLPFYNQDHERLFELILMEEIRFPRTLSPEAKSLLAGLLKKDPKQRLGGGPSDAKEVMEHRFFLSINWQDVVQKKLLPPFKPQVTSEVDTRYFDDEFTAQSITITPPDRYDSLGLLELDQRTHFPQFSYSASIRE
Sequence of Serine/threonine-protein kinase AKT (Homo sapiens) (Q9Y243 whole entry, looked up): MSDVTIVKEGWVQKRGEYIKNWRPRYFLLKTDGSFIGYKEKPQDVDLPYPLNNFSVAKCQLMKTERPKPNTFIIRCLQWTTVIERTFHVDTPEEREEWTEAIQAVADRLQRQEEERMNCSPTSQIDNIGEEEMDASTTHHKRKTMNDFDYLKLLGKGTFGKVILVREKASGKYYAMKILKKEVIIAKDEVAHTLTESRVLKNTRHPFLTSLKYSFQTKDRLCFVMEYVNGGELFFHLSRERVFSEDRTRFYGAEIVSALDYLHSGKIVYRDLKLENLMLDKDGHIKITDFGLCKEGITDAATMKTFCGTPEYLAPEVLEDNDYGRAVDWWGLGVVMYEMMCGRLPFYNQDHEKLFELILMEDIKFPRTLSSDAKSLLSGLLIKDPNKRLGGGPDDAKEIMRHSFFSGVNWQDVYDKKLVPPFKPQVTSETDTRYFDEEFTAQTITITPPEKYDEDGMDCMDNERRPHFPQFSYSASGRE
Sequence of Epithelial discoidin domain-containing receptor 1 (Q08345 whole entry, the tested form may be a part): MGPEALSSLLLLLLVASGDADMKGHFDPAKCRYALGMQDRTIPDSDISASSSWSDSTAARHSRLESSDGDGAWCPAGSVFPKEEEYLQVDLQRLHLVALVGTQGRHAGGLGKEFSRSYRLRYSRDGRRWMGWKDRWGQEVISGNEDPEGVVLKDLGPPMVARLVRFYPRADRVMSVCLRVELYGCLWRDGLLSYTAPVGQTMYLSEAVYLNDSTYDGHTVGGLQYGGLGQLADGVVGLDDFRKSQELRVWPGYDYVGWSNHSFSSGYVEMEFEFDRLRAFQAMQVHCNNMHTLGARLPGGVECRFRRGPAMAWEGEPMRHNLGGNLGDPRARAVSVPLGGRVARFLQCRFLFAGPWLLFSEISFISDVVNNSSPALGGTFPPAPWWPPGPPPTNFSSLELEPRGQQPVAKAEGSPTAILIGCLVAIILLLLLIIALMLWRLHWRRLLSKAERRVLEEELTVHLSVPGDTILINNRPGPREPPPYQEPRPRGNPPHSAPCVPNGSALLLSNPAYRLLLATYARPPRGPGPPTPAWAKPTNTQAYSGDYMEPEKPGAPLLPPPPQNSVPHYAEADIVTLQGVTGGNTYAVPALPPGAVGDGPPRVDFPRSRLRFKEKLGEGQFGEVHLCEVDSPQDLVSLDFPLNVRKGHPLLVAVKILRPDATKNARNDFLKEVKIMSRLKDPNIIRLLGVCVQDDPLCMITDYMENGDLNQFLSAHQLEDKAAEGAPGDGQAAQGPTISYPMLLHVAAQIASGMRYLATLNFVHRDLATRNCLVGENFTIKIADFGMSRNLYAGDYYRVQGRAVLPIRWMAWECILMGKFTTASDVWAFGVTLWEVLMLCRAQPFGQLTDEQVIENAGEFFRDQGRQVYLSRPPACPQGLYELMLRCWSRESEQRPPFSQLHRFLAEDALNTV

MRT inf [2]: 6.55 h
bioavailability [3]: 14.4%
Tmax [4]: 3 h
IC50 [5]: 0.151 µM
Kd [6]: > 1 µM
Kd [7]: 0.029 µM
AUC(0-inf) [9]: 8630 ng·h/mL
Kd [10]: 0.0023 µM
AUC(0-t) at 96 h [13]: 8410 ng·h/mL
IC50 [14]: 0.0047 µM
inhibition [15]: Dde
AUC(0-t) at 96 h [16]: 11700 ng·h/mL
Cmax [18]: 12300 ng/mL
half-life [19]: 4.22 h
Kd [20]: > 1 µM
inhibition [21]: Dde
Kd [22]: 0.019 µM
Cmax [23]: 888 ng/mL
Kd [24]: > 1 µM
Kd [26]: 0.0026 µM
AUC(0-inf) [27]: 11700 ng·h/mL
Kd [29]: 0.88 µM
Kd [30]: 0.95 µM
Tmax [32]: 4.8 min
inhibition [35]: Dde
Kd [36]: 0.56 µM
SMILES: COc1cc2c(Oc3ccc(Nc4nn(C)cc4C(=O)NC4CCCCC4)cc3F)ccnc2cc1OCCCN1CCOCC1
inhibition [1]: Dde
inhibition [8]: Active
Activity [11]: Non-Toxic
inhibition at 1 µM [12]: 56.5%
inhibition in vivo at 50 mg/kg [17]: 78%
inhibition at 3 µM [25]: 70.4%
inhibition [28]: Dde
inhibition at 0.33 µM [31]: 34.8%
Activity [33]: Dde
inhibition [34]: Dde
inhibition [37]: Active
inhibition in vivo at 100 mg/kg [38]: 95.9%
